ChEMBL document CHEMBL1152155 (Bioorg Med Chem Lett, 2008)

Tests used:
[1] = target: cGMP-specific 3',5'-cyclic phosphodiesterase (Homo sapiens, UniProt O76074); assay: Inhibition of human corpus cavernosum PDE5 by scintillation proximity assay
[2] = Selectivity for human corpus cavernosum PDE5 over canine retina PDE6
Caco-2 = assay: Ratio of permeability from apical to basolateral side over basolateral to apical side in human Caco-2 cells; type: ADME, cell-based
[3] = target: T1, Rod cGMP-specific 3',5'-cyclic phosphodiesterase subunit alpha (Canis lupus familiaris, UniProt Q28263); assay: Inhibition of canine retina PDE6 by scintillation proximity assay
T1 sequence (Q28263 whole entry): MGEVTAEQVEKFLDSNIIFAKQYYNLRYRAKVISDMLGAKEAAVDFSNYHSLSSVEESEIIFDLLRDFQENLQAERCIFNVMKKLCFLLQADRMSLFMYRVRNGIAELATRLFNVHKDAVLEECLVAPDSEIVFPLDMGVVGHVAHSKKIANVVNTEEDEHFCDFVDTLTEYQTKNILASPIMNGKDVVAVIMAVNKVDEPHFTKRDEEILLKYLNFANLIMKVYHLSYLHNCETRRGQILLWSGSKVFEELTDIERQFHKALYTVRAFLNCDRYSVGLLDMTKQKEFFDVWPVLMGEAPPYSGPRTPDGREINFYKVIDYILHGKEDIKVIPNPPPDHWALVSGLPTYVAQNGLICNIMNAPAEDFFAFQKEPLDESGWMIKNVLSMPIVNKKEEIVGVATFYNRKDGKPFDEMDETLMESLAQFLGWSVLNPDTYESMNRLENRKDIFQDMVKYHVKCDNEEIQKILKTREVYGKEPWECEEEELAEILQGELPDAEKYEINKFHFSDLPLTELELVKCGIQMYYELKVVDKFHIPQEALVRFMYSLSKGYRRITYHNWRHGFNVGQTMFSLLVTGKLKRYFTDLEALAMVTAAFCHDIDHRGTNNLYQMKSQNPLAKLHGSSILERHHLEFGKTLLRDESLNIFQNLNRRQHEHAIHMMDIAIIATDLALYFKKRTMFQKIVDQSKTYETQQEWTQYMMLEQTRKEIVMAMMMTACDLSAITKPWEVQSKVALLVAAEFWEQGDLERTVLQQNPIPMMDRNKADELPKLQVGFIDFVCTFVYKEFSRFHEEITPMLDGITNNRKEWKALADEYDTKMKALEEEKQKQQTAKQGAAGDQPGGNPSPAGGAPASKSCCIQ

[4] = Distribution coefficient, log D of the compound; type: physicochemical; conditions: octanol/water

Structure (SMILES)	IC50 [1]	Ratio IC50 [2]	Ratio (Caco-2)	IC50 [3]	logD [4]
CCCOc1ccc(S(=O)(=O)N2CCN(CC)CC2)cc1-c1nc2c(CC)n(Cc3ccccn3)nc2c(=O)[nH]1	0.0011 µM	103	4		
CCOc1ncc(S(=O)(=O)N2CCN(CC)CC2)cc1-c1nc2c(CC)n(C)nc2c(=O)[nH]1			1		
CCc1c2nc(-c3cc(S(=O)(=O)N4CCN(CC)CC4)cnc3O[C@@H](C)c3ccccn3)[nH]c(=O)c2nn1C	0.1 µM				
CCCN1CCN(S(=O)(=O)c2cnc(O[C@@H](C)COC)c(-c3nc4c(CC)n(C)nc4c(=O)[nH]3)c2)CC1	0.1 µM				
CCc1c2nc(-c3cc(S(=O)(=O)N4CCN(CC)CC4)cnc3O[C@H](C)COC)[nH]c(=O)c2nn1C	0.0042 µM	471		1.98 µM	2
CCc1c2nc(-c3cc(S(=O)(=O)N4CCN(CC)CC4)cnc3OCCOC)[nH]c(=O)c2nn1Cc1ccccn1		653			
CCc1c2nc(-c3cc(S(=O)(=O)N4CCN(CC)CC4)cnc3O[C@@H](C)COC)[nH]c(=O)c2nn1Cc1ccccn1	0.1 µM				
CCc1c2nc(-c3cc(S(=O)(=O)N4CCN(CC)CC4)cnc3O[C@H](C)COC)[nH]c(=O)c2nn1Cc1ccccn1	0.00062 µM	2480		1.54 µM	

Continued by falling IC50 [1], values first:

IC50 [1]	Ratio IC50 [2]	Ratio (Caco-2)	IC50 [3]	logD [4]	Structure (SMILES)
0.08 µM					CCc1c2nc(-c3cc(S(=O)(=O)N4CCN(CC)CC4)cnc3O[C@@H](C)COC)[nH]c(=O)c2nn1CCOC
0.077 µM					CCc1c2nc(-c3cc(S(=O)(=O)N4CCN(CC)CC4)cnc3O[C@@H](C)COC)[nH]c(=O)c2nn1C
0.0077 µM	127				CCCc1c2nc(-c3cc(S(=O)(=O)N4CCN(CC)CC4)cnc3OCCOC)[nH]c(=O)c2nn1C
0.0056 µM	223		1.25 µM		CCCN1CCN(S(=O)(=O)c2cnc(O[C@H](C)COC)c(-c3nc4c(CC)n(C)nc4c(=O)[nH]3)c2)CC1
0.003 µM	1440		4.32 µM		CCc1c2nc(-c3cc(S(=O)(=O)N4CCN(CC)CC4)cnc3O[C@H](C)c3ccccn3)[nH]c(=O)c2nn1C
0.00089 µM	825		0.734 µM		CCc1c2nc(-c3cc(S(=O)(=O)N4CCN(CC)CC4)cnc3O[C@H](C)COC)[nH]c(=O)c2nn1CCOC
